Patent US20230149388A1, “OPIOID ANTAGONIST FORMULATIONS” (EMERGENT PRODUCT DEVELOPMENT GAITHERSBURG INC., priority 2020, published 2023)

Test: Pharmacokinetics of naloxone in Beagle dog, IM injection
Assay type: in vivo
Conditions: both sexes, plasma, 0.3 mg/kg, Beagle dogs
Protocol: Pharmacokinetic (“PK”) data was collected from male and female Beagle dogs. Two (2) animals of each sex were assigned to three cohorts. […] Each injection was administered at a dose of 0.3 mg/kg.
Blood samples were collected from each animal following IV injections at target time points of pre-dose, and at 0.033, 0.083, 0.167, 0.333, 0.5, 1, 2, 4, and 8 hr. Blood samples were also collected from each animal following IM injections at target time points of pre dose, and at 0.083, 0.167, 0.25, 0.333, 0.5, 1, 2, 4, and 8 hr. Blood samples were collected into tubes containing dipotassium ethylenediaminetetraacetic acid (K2EDTA), processed to plasma, and stored until analyzed for naloxone.
PK analysis was performed using the target dose (mg/kg), sample collection time points (hr), and the measured concentrations of naloxone (ng/mL) in serum. If the actual sample collection time points were within 5% of target from 0 to 4 hours or within 15 minutes after 4 hours, then the target time points were used. […] The lower limit of quantitation (LLOQ) in plasma for this method is 0.2 ng/mL.
The method utilized protein precipitation in a 96-well format and LC-MS/MS analysis. The literature method was modified to utilize a larger sample size (50 μL) analysis.
The concentration-time profiles were evaluated using the non-compartmental analysis (NCA) module in the WinNonlin® software program (Version 8.2). […]

Work on C=CCN1CC[C@]23c4c5ccc(O)c4O[C@H]2C(=O)CC[C@@]3(O)[C@H]1C5 [naloxone] yielded a Tmax (following IM injection, typical value) of ~15 min and a half-life (following both IM and IV injection, read-out: group mean elimination half-life) of 28 to 35 min.
